The values below come from patent US20170165293A1, “METHOD AND APPARATUS FOR SCAVENGING PLASMA FREE HEMOGLOBIN” (GENO LLC, priority 2015, published 2017).

The subject of data set [1] is brain ischemia-reperfusion injury. Conditions: acute rat model, focal ischemia-reperfusion, inhaled; cited from earlier work.
The test system of a further data set is chrondrocytes. Conditions: cited from earlier work.
Data set [2] has as its system polymicrobial sepsis-induced lung injury. Conditions: in vivo.
The next data set has as its system LPS-induced lung injury. The data set is classed as in vivo, mice.
A further data set addresses cell-free Hb (Homo sapiens, UniProt P68871+P69905). Conditions: cited from earlier work.
The subject of the next data set is canines. Conditions: cited from earlier work; for mean SVRI compared to controls (albumin and saline) / mean MAP compared to controls (albumin and saline): 1-3 hr, after 1-hour infusion; for mean SVRI compared to controls (albumin and saline): oxyHb p<0.0001, metHb p=0.04; for mean MAP compared to controls (albumin and saline): oxyHb p<0.0001, metHb p=0.05.
The conditions of data set [3]: several time points; cited from earlier work.
Another data set deals with NO. Conditions: cited from earlier work; for NO consumption ability of plasma compared to controls with infused albumin and saline: samples collected after infusion, both p<0.0001.
In data set [4] the test system is free water-induced intravascular hemolysis. Conditions: in vivo; cited from earlier work.
In the next data set the test system is HIF. Conditions: cited from earlier work.

Like-named read-outs stand apart in the source and are kept apart here.

Chain of cell-free Hb (P69905 2-142 limits assumed): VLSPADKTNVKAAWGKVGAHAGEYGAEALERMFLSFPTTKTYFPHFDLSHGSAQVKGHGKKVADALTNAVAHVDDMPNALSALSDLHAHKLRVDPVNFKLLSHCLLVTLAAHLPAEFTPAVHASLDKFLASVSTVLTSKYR
Chain of cell-free Hb (P68871 2-147 limits assumed): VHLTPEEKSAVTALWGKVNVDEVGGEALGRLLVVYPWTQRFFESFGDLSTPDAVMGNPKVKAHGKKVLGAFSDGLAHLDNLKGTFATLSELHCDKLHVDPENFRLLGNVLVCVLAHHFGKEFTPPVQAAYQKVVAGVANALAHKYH

With `[HH]` [H2, hydrogen], in [1], the brain injury result is given as “markedly suppressed”. Besides, the “generation of hydroxyl radicals and peroxynitrite” value in the data set with chrondrocytes was “selectively reduce”. Besides, the “lung injury in polymicrobial sepsis” value in data set [2] is listed as “significantly attenuated”. For the same molecule, in the data set with LPS-induced lung injury (H2 and/or NO treatment), the “LPS-induced pulmonary early and late NF-κB activation” value is listed as “inhibited”; the cell apoptosis entry is listed as “down-regulated”; the pulmonary inflammation result is “down-regulated”. In addition, the lung injury result with LPS-induced lung injury (intratracheal LPS, 2% H2 and/or 20 ppm NO for 3 hours starting at 5 minutes or 3 hours after LPS) was “significantly improved”.

As for “cell-free Hb: cell-free hemoglobin infused with or without inhaled NO”, the “species of the cell-free Hb” value with cell-free Hb (animals breathing air (n=2)) is reported as “remained predominantly oxyhemoglobin”. Moreover, in the data set with cell-free Hb (infusion of cell-free Hb), the SVRI result was “increases” and the “pulmonary vascular resistance index” value is “increases”.

Take “metHb: cell-free ferric methemoglobin (Fe3+) infused into animals”: in the data set with canines, the “mean SVRI compared to controls (albumin and saline)” value is recorded as “elevations”; the “mean MAP compared to controls (albumin and saline)” value is recorded as “elevations”. For the same molecule, in the data set on canines (cell-free metHb infusions, after being reduced to oxyHb), the vascular pressures entry is “increase”. Further, the “clearance / stability in plasma compared with cell-free oxyHb” value in the data set with canines (in vivo) was “cleared faster and/or is less stable”. Moreover, the “increase in MAP compared to the oxyHb infusions” value in the data set with canines (similar concentrations of Hb solutions over 1 hour, p=0.006) is on record as “significantly less of an increase”. The “increase in SVRI compared to the oxyHb infusions” value with canines (similar concentrations of Hb solutions over 1 hour, p=0.04) is given as “significantly less of an increase”. Moreover, the “correlation of metHb levels converted from infused oxyHb with changes in MAP” value in the data set on canines (throughout the experiment) is on record as “not correlated”. Moreover, the “mean plasma nitrite levels compared to controls” value in data set [3] is listed as “similar”. Besides, the “NO consumption by plasma relative to the infused oxyHb-containing plasma” value in the data set on NO (p=0.009) is listed as 10 fold lower. Moreover, the “NO consumption ability of plasma compared to controls with infused albumin and saline” value with NO is on record as “Elevated”.

In the case of nitric oxide [inhaled NO], in data set [4], the MAP result was “no net effect”, the SVRI entry was “no net effect”, the “effect of sodium nitroprusside on CI during hemolysis” value is listed as “restored” and the “effect of sodium nitroprusside on SVRI during hemolysis” value was “restored”. For the same molecule, in data set [4], the “hypertensive effects associated with intravascular free water induced hemolysis and release of cell-free oxyHb” value was “completely eliminates”; the “impairment in the ability of the kidneys to compensate for hyponatremia (serum sodium levels)” value was “attenuated”; the “increase in MAP caused by free water-induced intravascular hemolysis” value is “attenuated”; the “increase in SVRI caused by free water-induced intravascular hemolysis” value is “attenuated”. In data set [4], the six-hour creatinine clearance entry is “intermediate clearance”, the systemic blood pressure result is “miniscule or no measurable effects”, the “total plasma Hb composition” value was “predominantly methemoglobin” and the vasoconstriction entry is listed as “prevent vasoconstriction”. Further, in the data set on HIF (high doses and after 30 minutes), the “effect on HIF” value is listed as “inhibitory”. Also, the “effect on HIF” value in the data set with HIF (low dose, for 30 minutes, during hypoxia) is recorded as “stimulates”. Moreover, the “lung injury in polymicrobial sepsis” value in data set [2] is “significantly attenuated”. On cell-free Hb (animals breathing NO (n=2)), the “increase in SVRI on infusion of cell-free Hb” value is listed as “attenuated”, the “increase in pulmonary vascular resistance index on infusion of cell-free Hb” value is “attenuated” and the “species of the cell-free Hb” value was “converted to methemoglobin”. In the data set on LPS-induced lung injury (mouse, in vivo), the “LPS-induced pulmonary early and late NF-κB activation” value was “inhibited”; the cell apoptosis result is given as “down-regulated”; the lung injury entry is listed as “significantly improved”; the pulmonary inflammation entry is on record as “down-regulated”.

As to “oxyHb: cell-free oxyhemoglobin (Fe2+-O2) infused into animals”, in the data set on canines, the “mean SVRI compared to controls (albumin and saline)” value is “significant elevations”; the “mean MAP compared to controls (albumin and saline)” value is listed as “significant elevations”. In the data set with canines (2 hours after the oxyHb infusion ended, same rate as during the infusion), the MAP result was “continued to steadily increase”. Further, the “increase in MAP” value in the data set on canines (oxyHb infusion, from 0 to 3 hr, p<0.0001) is 27%. In addition, the “mean plasma nitrite levels compared to controls” value in [3] was “similar”. Also, the “increase in NO consumption ability of plasma, ranking” value in the data set with NO (among infused groups) is given as “highest”. For the same molecule, the “NO consumption ability of plasma compared to controls with infused albumin and saline” value in the data set with NO is on record as “Elevated”.
